This passage reports mass density results from the NIST ThermoML archive (doi:10.1021/je049903o).

The structures appear in SMILES notation. ± gives the expanded uncertainty stated by the source.

The conditions of this data set: 298.15 K; 101.33 kPa; Liquid.
What is called mass density is mass per unit of volume. In the case of `COCCOCCOCCOCCOC` [2,5,8,11,14-pentaoxapentadecane], the mass density came out at 1007.12 ± 0.53 kg/m3.

On to `COCCOCCOCCOC` [2,5,8,11-tetraoxadodecane], for which the mass density came to 980.625 ± 0.52 kg/m3.

Take `CCCCCCCCCC` [decane]: the mass density is recorded as 726.357 ± 0.83 kg/m3.

Turning to `CCCCCCC` [heptane], the mass density amounted to 679.542 ± 0.45 kg/m3.

Regarding `CCCCCCCC` [octane], the mass density was found to be 698.548 ± 0.53 kg/m3.

For `CCCCCCCCCCCCCC` [tetradecane], the mass density is 759.274 ± 0.51 kg/m3.
